Results reported in patent US20110212890A1, “METASTIN DERIVATIVE AND USE THEREOF” (Takeda Pharmaceutical Company Limited, priority 2008, published 2011).
Ahx = NCCCCCC(=O)O

How the values were obtained:
male Crl: CD (SD) rats [1] = test: Testosterone release action in male rat (plasma total testosterone by radioimmunoassay); type: in vivo
Description: (§1) For male Crl: CD (SD) rats (8 or 10 weeks old), compounds 1 (10 weeks old), 3, 8, 9, 10 and 11 (8 weeks old) (1, 10 or 100 nmol/kg), and metastin (45-54) (PEPTIDE INSTITUTE, INC., 10 or 100 nmol/kg), which were dissolved in physiological saline, were administered subcutaneously to the dorsum. For the control group, a physiological saline was administered subcutaneously to the dorsum. About 0.4 mL of the blood was collected from the tail vein before the administration (0 hour) and after 0.5, 1, 2, 4 hours of the administration of compounds 1, 3, 8, 9, 10 and 11, and metastin (45-54), or physiological saline. The collected blood was well mixed with 12 μL of 10 w/v % EDTA.2Na-containing trasylol solution (Bayer AG), and then separated by centrifugation at 12,000 rpm for 10 minutes, and the supernatant was recovered as the plasma sample. The concentrations of luteinizing hormone (LH) and total testosterone in the plasma were measured with radioimmunoassay (rat LH RIA Immuno-reagent set, National Hormone and Peptide Program, available from Dr. A. F. Parlow, The National Institute of Diabetes and Digestive and Kidney Diseases, and DPC Total Testosterone Kit, Mitsubishi Chemical Formula Iatron, Inc.).

male Crl: CD (SD) rats [2] = test: LH release action in male rat (plasma LH by radioimmunoassay); type: in vivo
Description: as §1

[3] = subcutaneous to the dorsum, 1, 10 or 100 nmol/kg, AUC from 0 hour to 4 hours after the administration, vs control group

| Substance | degree of increase in total testosterone concentration in the plasma in comparison to metastin (45-54) (male Crl: CD (SD) rats [1]; subcutaneous) | degree of increase in LH concentration in the plasma in comparison to metastin (45-54) (male Crl: CD (SD) rats [2]; subcutaneous) | dose showing (significant) increase in the total testosterone concentration in the plasma (AUC) (male Crl: CD (SD) rats [1]; [3]) [nmol/kg] | dose showing (significant) increase in the LH concentration in the plasma (AUC) (male Crl: CD (SD) rats [2]; [3]) [nmol/kg] |
| --- | --- | --- | --- | --- |
| PEG5K(CS)-CO-Acp-Tyr-Asn-Trp-Asn-Ser-Phe-Gly-Leu-Arg-Phe-NH2 ({PEG5K(CS)‑CO-Ahx}-YNWNSFGLRF-NH2) [compound 1] | greater degree of increase | greater degree of increase |  |  |
| metastin (45-54): peptide consisting of the N-terminal 45th-54th amino acid sequence of human metastin (SEQ ID NO: 16); PEPTIDE INSTITUTE, INC. (YNWNSFGLRF) |  |  | 100 | 100 |
